Source: patent US20080145858A1, “DETECTION AND IDENTIFICATION OF TOXICANTS BY MEASUREMENT OF GENE […]” (priority 2003, published 2008)

Test system: Xenopus laevis cleavage stage embryos (stage 8)
Assay: Xenopus cDNA microarray, differential gene expression after PMA treatment during cleavage stage (Group I)
Assay type: in vivo
Conditions: PMA 100 ng/ml, stage 8
Description: Specifically, the method and screen of the present invention function as follows. EST clones produced from Xenopus laevis unfertilized eggs were used in the present study with ˜1,200 EST clones from a 18,500 EST clone set selected for production of a Xenopus cDNA microarray. The Xenopus microarray was used to measure the effect of chemical treatment on Xenopus embryo gene regulation. The chemical treatment was a phorbol ester, PMA. Xenopus eggs were obtained from females induced for ovulation and fertilized in vitro. Control Xenopus laevis embryos were allowed to develop to stage 8 blastula or stage 15 neurula. Treated embryos were exposed to PMA during cleavage stage or during neurulation with end points of blastula (stage 8) or neurula (stage 15). Specifically, PMA 100 ng/ml was added to the incubation media during cleavage stages for evaluation in stage 8 embryo or PMA was added during neural induction for evaluation in stage 15 embryos. RNA extracted from the embryos was used to generate fluorescent cDNA probes for Xenopus microarray analyses to measure differential gene expression with and without the phorbol ester treatment. Analysis was performed using paired RNA samples to compare PMA-treated and untreated embryos: Group I measured the effects of PMA-treatment during the cleavage stage in stage 8 embryos and Group II measured the effects of PMA-treatment during neurulation in stage 15 embryos. Group III measured the change in gene expression between stage 8 and stage 15 embryos.
cDNA fragments were obtained by PCR replication of Xenopus laevis unfertilized egg cDNA inserts, purified, quantitated and loaded onto glass chips by robotics. In addition to the selected ˜1,200 genes, 64 lambda Q gene, an internal control cDNA (Genomic Solutions, Inc., Ann Arbor, Mich.) was loaded on the chip. The insert DNA from ˜1,200 clones were PCR amplified using forward and reverse primers (GF.200 primers, Research Genetics, Huntsville, Ala.). A second PCR was carried out using 1 μl of the primary PCR (20 μl) for template. Excess dNTPs, polymerase and other PCR artifacts were removed from the secondary PCR reactions using Millipore Multiscreen plates (Millipore Corporation, Bedford, Mass.) using the standard protocol. The purity of the PCR products was assessed by electrophoresis and documented using an Alphalmager 1000 Digital Imaging System (Alpha Innotech Corporation, San Leandro, Calif.). The DNA obtained by PCR was quantitated using PicoGreen (Molecular Probes, Eugene, Oreg.). The DNA was denatured and arrayed onto amino-silane coated microscope slides (CMT-GAPS coated slides, Corning, Corning, N.Y.) using a Flexys robotic workstation (Genomic Solutions Inc.). The ˜1,200 PCR products were arrayed in duplicate on each slide and cross-linked. Each gene chip contained duplicate cDNA samples.
Total RNA was prepared from embryos treated in three separate dishes per treatment group that were pooled. Total RNA was isolated from the frog embryos (1,200 embryos for each probe production) using TRIzol extraction (Gibco BRL, Grand Island, N.Y.) and Qiagen RNeasy kits (Qiagen, Valencia, Calif.). The ethanol precipitated RNA was resuspended in RNase-free water, quantitated with RiboGreen (Molecular Probes, Eugene, Oreg.). Total RNA was further purified using oligoTex mRNA maxi kit (Qiagen Co.) with the bound mRNA eluted with minimum volume of elution buffer and precipitated with ethanol. The recovery rate of mRNA by the ethanol precipitation method was ˜70%. Cy3- or Cy5-tagged probes were produced from an mRNA mixture (20 μl) of Xenopus mRNA (5 μg) and lambda Q gene mRNA (3.5 ng) reverse-transcribed with oligo(dT)18-22 primer and dNTPs and the reverse-transcribed cDNA was cross-linked with Cy3 or Cy5 as described in Clontech Atlas™ Glass Fluorescent Labeling kit manual (www.clontech.com). After hydrolysis of the RNA and purification of the probe (Centricon 50, Millipore, Bedford, Mass.), the cDNA in TE buffer was quantitated by absorbance at 260 nm. […]

Q: For `CCCCCCCCCCCCCC(=O)O[C@@H]1[C@@H](C)[C@@]2(O)[C@@H](C=C(CO)C[C@]3(O)C(=O)C(C)=C[C@@H]23)[C@@H]2C(C)(C)[C@]12OC(C)=O` [PMA, phorbol 12-myristate 12-acetate], which “Ratio of Medians (Cy5/Cy3) Mean” value (PBX0138A04 mRNA) is on record?
A: 2.99 ± 1.32

Q: And the “Ratio of Medians (Cy5/Cy3) Second Spot” value (PBX0138A04 mRNA)?
A: 4.33

Q: What about the “(CY3/CY5) by Landmarks (1.6)” value (PBX0138C12 mRNA) of the same molecule?
A: 3.59

Q: And the “(CY3/CY5) by all Data Points (1.3)” value (PBX0138C12 mRNA)?
A: 5.74

Q: And the “Normalization by Landmarks (1.6)” value (PBX0138C12 mRNA)?
A: 0.28

Q: And the “Normalization by all Data Points (1.3)” value (PBX0138C12 mRNA)?
A: 0.17

Q: What about the “Ratio of Medians (Cy5/Cy3) First Spot” value (PBX0138C12 mRNA) of the same molecule?
A: 0.14

Q: And the “Ratio of Medians (Cy5/Cy3) Mean” value (PBX0138C12 mRNA)?
A: 0.13 ± 0.01

Q: And the “Ratio of Medians (Cy5/Cy3) Second Spot” value (PBX0138C12 mRNA)?
A: 0.13

Q: What about the “Normalized by Landmarks (1.59)” value (PBX0138D01 mRNA) of the same molecule?
A: 4.45

Q: And the “Normalized by all Data Points (1.28)” value (PBX0138D01 mRNA)?
A: 3.58

Q: What about the “Ratio of Medians (Cy5/Cy3) First Spot” value (PBX0138D01 mRNA) of the same molecule?
A: 3.50

Q: What about the “Ratio of Medians (Cy5/Cy3) Mean” value (PBX0138D01 mRNA) of the same molecule?
A: 2.80 ± 0.70

Q: And the “Ratio of Medians (Cy5/Cy3) Second Spot” value (PBX0138D01 mRNA)?
A: 2.10

Q: What about the “(CY3/CY5) by Landmarks (1.6)” value (PBX0138E10 mRNA) of the same molecule?
A: 2.68

Q: What about the “(CY3/CY5) by all Data Points (1.3)” value (PBX0138E10 mRNA) of the same molecule?
A: 4.29

Q: What about the “Normalization by Landmarks (1.6)” value (PBX0138E10 mRNA) of the same molecule?
A: 0.37

Q: And the “Normalization by all Data Points (1.3)” value (PBX0138E10 mRNA)?
A: 0.23

Q: What about the “Ratio of Medians (Cy5/Cy3) First Spot” value (PBX0138E10 mRNA) of the same molecule?
A: 0.15

Q: What about the “Ratio of Medians (Cy5/Cy3) Mean” value (PBX0138E10 mRNA) of the same molecule?
A: 0.18 ± 0.03

Q: And the “Ratio of Medians (Cy5/Cy3) Second Spot” value (PBX0138E10 mRNA)?
A: 0.21

Q: What about the “(CY3/CY5) by Landmarks (1.6)” value (PBX0138G10 mRNA) of the same molecule?
A: 3.35

Q: And the “(CY3/CY5) by all Data Points (1.3)” value (PBX0138G10 mRNA)?
A: 5.36

Q: What about the “Normalization by Landmarks (1.6)” value (PBX0138G10 mRNA) of the same molecule?
A: 0.30

Q: What about the “Normalization by all Data Points (1.3)” value (PBX0138G10 mRNA) of the same molecule?
A: 0.19

Q: And the “Ratio of Medians (Cy5/Cy3) First Spot” value (PBX0138G10 mRNA)?
A: 0.10

Q: And the “Ratio of Medians (Cy5/Cy3) Mean” value (PBX0138G10 mRNA)?
A: 0.14 ± 0.04

Q: What about the “Ratio of Medians (Cy5/Cy3) Second Spot” value (PBX0138G10 mRNA) of the same molecule?
A: 0.18

Q: And the “(CY3/CY5) by Landmarks (1.6)” value (PBX0138G12 mRNA)?
A: 2.56

Q: And the “(CY3/CY5) by all Data Points (1.3)” value (PBX0138G12 mRNA)?
A: 4.09

Q: What about the “Normalization by Landmarks (1.6)” value (PBX0138G12 mRNA) of the same molecule?
A: 0.39

Q: And the “Normalization by all Data Points (1.3)” value (PBX0138G12 mRNA)?
A: 0.24

Q: And the “Ratio of Medians (Cy5/Cy3) First Spot” value (PBX0138G12 mRNA)?
A: 0.17

Q: And the “Ratio of Medians (Cy5/Cy3) Mean” value (PBX0138G12 mRNA)?
A: 0.19 ± 0.02

Q: And the “Ratio of Medians (Cy5/Cy3) Second Spot” value (PBX0138G12 mRNA)?
A: 0.21

Q: What about the “Normalized by Landmarks (1.59)” value (PBX0139A08 mRNA) of the same molecule?
A: 4.21

Q: What about the “Normalized by all Data Points (1.28)” value (PBX0139A08 mRNA) of the same molecule?
A: 3.39

Q: What about the “Ratio of Medians (Cy5/Cy3) First Spot” value (PBX0139A08 mRNA) of the same molecule?
A: 2.00

Q: And the “Ratio of Medians (Cy5/Cy3) Mean” value (PBX0139A08 mRNA)?
A: 2.65 ± 0.65

Q: And the “Ratio of Medians (Cy5/Cy3) Second Spot” value (PBX0139A08 mRNA)?
A: 3.29

Q: What about the “Normalized by Landmarks (1.59)” value (PBX0139B06 mRNA) of the same molecule?
A: 5.45

Q: And the “Normalized by all Data Points (1.28)” value (PBX0139B06 mRNA)?
A: 4.39

Q: And the “Ratio of Medians (Cy5/Cy3) First Spot” value (PBX0139B06 mRNA)?
A: 4.00

Q: And the “Ratio of Medians (Cy5/Cy3) Mean” value (PBX0139B06 mRNA)?
A: 3.43 ± 0.57

Q: What about the “Ratio of Medians (Cy5/Cy3) Second Spot” value (PBX0139B06 mRNA) of the same molecule?
A: 2.86

Q: What about the “(CY3/CY5) by Landmarks (1.6)” value (PBX0139D03 mRNA) of the same molecule?
A: 3.15

Q: And the “(CY3/CY5) by all Data Points (1.3)” value (PBX0139D03 mRNA)?
A: 5.04

Q: What about the “Normalization by Landmarks (1.6)” value (PBX0139D03 mRNA) of the same molecule?
A: 0.32

Q: What about the “Normalization by all Data Points (1.3)” value (PBX0139D03 mRNA) of the same molecule?
A: 0.20

Q: What about the “Ratio of Medians (Cy5/Cy3) First Spot” value (PBX0139D03 mRNA) of the same molecule?
A: 0.04

Q: What about the “Ratio of Medians (Cy5/Cy3) Mean” value (PBX0139D03 mRNA) of the same molecule?
A: 0.15 ± 0.11

Q: What about the “Ratio of Medians (Cy5/Cy3) Second Spot” value (PBX0139D03 mRNA) of the same molecule?
A: 0.26

Q: And the “(CY3/CY5) by Landmarks (1.6)” value (PBX0139F05 mRNA)?
A: 3.52

Q: And the “(CY3/CY5) by all Data Points (1.3)” value (PBX0139F05 mRNA)?
A: 5.64

Q: What about the “Normalization by Landmarks (1.6)” value (PBX0139F05 mRNA) of the same molecule?
A: 0.28

Q: And the “Normalization by all Data Points (1.3)” value (PBX0139F05 mRNA)?
A: 0.18

Q: And the “Ratio of Medians (Cy5/Cy3) First Spot” value (PBX0139F05 mRNA)?
A: 0.15

Q: And the “Ratio of Medians (Cy5/Cy3) Mean” value (PBX0139F05 mRNA)?
A: 0.14 ± 0.02

Q: What about the “Ratio of Medians (Cy5/Cy3) Second Spot” value (PBX0139F05 mRNA) of the same molecule?
A: 0.12

Q: What about the “(CY3/CY5) by Landmarks (1.6)” value (PBX0139F12 mRNA) of the same molecule?
A: 2.63

Q: What about the “(CY3/CY5) by all Data Points (1.3)” value (PBX0139F12 mRNA) of the same molecule?
A: 4.21

Q: What about the “Normalization by Landmarks (1.6)” value (PBX0139F12 mRNA) of the same molecule?
A: 0.38

Q: What about the “Normalization by all Data Points (1.3)” value (PBX0139F12 mRNA) of the same molecule?
A: 0.24

Q: And the “Ratio of Medians (Cy5/Cy3) First Spot” value (PBX0139F12 mRNA)?
A: 0.20

Q: What about the “Ratio of Medians (Cy5/Cy3) Mean” value (PBX0139F12 mRNA) of the same molecule?
A: 0.18 ± 0.02

Q: What about the “Ratio of Medians (Cy5/Cy3) Second Spot” value (PBX0139F12 mRNA) of the same molecule?
A: 0.16

Q: What about the “(CY3/CY5) by Landmarks (1.6)” value (PBX0139H03 mRNA) of the same molecule?
A: 2.11

Q: What about the “(CY3/CY5) by all Data Points (1.3)” value (PBX0139H03 mRNA) of the same molecule?
A: 3.38

Q: And the “Normalization by Landmarks (1.6)” value (PBX0139H03 mRNA)?
A: 0.47

Q: And the “Normalization by all Data Points (1.3)” value (PBX0139H03 mRNA)?
A: 0.30

Q: What about the “Ratio of Medians (Cy5/Cy3) First Spot” value (PBX0139H03 mRNA) of the same molecule?
A: 0.26

Q: What about the “Ratio of Medians (Cy5/Cy3) Mean” value (PBX0139H03 mRNA) of the same molecule?
A: 0.23 ± 0.03

Q: What about the “Ratio of Medians (Cy5/Cy3) Second Spot” value (PBX0139H03 mRNA) of the same molecule?
A: 0.20
